For seven compounds, TGI results are on record in PubChem BioAssay (NCI).

The term TGI denotes the concentration giving total growth inhibition. The low end stands for more potent growth arrest, the high end for less potent growth arrest.

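Interpolation was linear, between the two tested concentrations surrounding the appropriate level; five concentrations were tested over 48 hours in 96-well plates. The concentration for full growth arrest is given as TGI.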 Bounds are passed on as bounds.

Holding throughout (assay): DTP human tumour cell line panel, 48 h
For test [1], the system named is HOP-62 NSCLC.
In test [2] the test system is UACC-257 melanoma.
The subject of test [3] is BT-549 breast.
The test system of test [4] is UACC-62 melanoma.
Test [5] concerns RXF 393 renal.
In test [6] the test system is NCI/ADR-RES ovarian.
Test [7] concerns PC-3 prostate.
Test [8] deals with UO-31 renal.
The test system of test [9] is M14 melanoma.
Test [10] relates to K-562 leukemia.
Test [11] has as its system OVCAR-4 ovarian.
Test [12] has as its system SN12C renal.
Test [13] has as its system LOX IMVI melanoma.
For test [14], the system named is 786-0 renal.
For test [15], the system named is SK-MEL-2 melanoma.
For test [16], the system named is SF-295 CNS.
For test [17], the system named is DU-145 prostate.
Test [18] relates to OVCAR-5 ovarian.
Test [19] relates to KM12 colon.
Test [20] deals with SK-OV-3 ovarian.

With `COc1cc(/C=C(\C)[N+](=O)[O-])cc(OC)c1`, the TGI in test [1] was found to be 33.7 µM; in test [2], 31 µM; in test [3], 33.6 µM; in test [4], 28.7 µM; in test [5], 13.1 µM; in test [6] it was 39.8 µM. Further, the TGI was determined as 34.8 µM in test [7]; 29.1 µM in test [8]; 28.2 µM in [9]; 5.52 µM in test [10]; 33.5 µM in [11]; 31 µM in test [12]. Besides, the TGI in [13] worked out at 11.9 µM; in [14], 8.95 µM; in test [15], 34.9 µM; in test [16], 53.6 µM; in test [17] it was 44.6 µM; in [18], 36.1 µM. Also, the TGI in [19] was 36.8 µM; in test [20], greater than 100 µM.
Turning to `NC1=Nc2cc(C(F)(F)F)ccc2Sc2nc3ccccc3n21`, the TGI in test [1], in test [2], in test [3], in test [4], in test [5] and in test [6] was greater than 100 µM in each case. Besides, the TGI in [7] is greater than 100 µM; in test [8] it was greater than 100 µM; in test [9], greater than 43.2 µM; in test [10], greater than 100 µM; in test [11] it was greater than 100 µM; in test [12] it was greater than 100 µM. Also, the TGI was greater than 100 µM in test [13]; greater than 28.6 µM in test [14]; greater than 100 µM in test [15]; greater than 100 µM in [16]; greater than 100 µM in test [17]; greater than 100 µM in test [18]. Further, the TGI in [19] and in test [20] was greater than 100 µM each time.
As for `Clc1ccc(-c2cn3c(nc4ccccc43)c(-c3ccccc3)n2)cc1`, the TGI is 24.6 µM in [1]; greater than 100 µM in [2]; 50.2 µM in test [3]; 26.7 µM in test [4]; greater than 49.2 µM in test [5]; greater than 100 µM in test [6]. Further, the TGI in test [7] was 47 µM; in [8], greater than 60 µM; in test [9] it was greater than 87.4 µM; in test [10] it was greater than 100 µM; in test [11], 25.2 µM; in test [12], greater than 100 µM. The TGI in test [13] was greater than 100 µM; in test [14], 15.2 µM; in [15], 38.8 µM; in test [16], 28.3 µM; in test [17] it was greater than 100 µM; in test [18], greater than 55.9 µM. Moreover, the TGI in test [19] was greater than 100 µM; in test [20] it was 26.5 µM.
As for `COC(=O)c1ccccc1CC1Cc2c(C)ccc(C)c2C1=O` (stereo not given), the total growth inhibition concentration (TGI) in test [1] was greater than 100 µM; in test [2], 48.2 µM; in [3] it was greater than 100 µM; in [4] it was greater than 100 µM; in test [5] it was 51 µM; in test [6], 70.9 µM. Moreover, the TGI in test [7], in test [8], in test [9], in [10], in test [11] and in test [12] was greater than 100 µM in each case. Also, the TGI in test [13] was 37.4 µM; in [14], greater than 100 µM; in test [15], 38.4 µM; in test [16] it was greater than 100 µM; in [17] it was greater than 100 µM; in test [18], greater than 100 µM. Moreover, the TGI in test [19] was 76.1 µM; in test [20], greater than 100 µM.
Consider `O=C1NC(N2CCCC(CO)C2)=N/C1=C\c1cccs1` (stereo not given), for which the TGI in [1], in test [2], in test [3], in test [4], in [5] and in [6] was greater than 100 µM each time. Further, the TGI in [7], in test [8], in test [9], in test [10], in [11] and in test [12] was greater than 100 µM in each case. The total growth inhibition concentration (TGI) in test [13], in test [14], in test [15], in test [16], in [17] and in [18] was greater than 100 µM each time. Besides, the TGI in [19] and in test [20] was greater than 100 µM each time.
For the compound `CCN(CC)c1c(C(C)(C)C)c(=O)n2ccsc2c1OC(C)=O`, the TGI in test [1] came to 26.1 µM; in test [2], 30.7 µM; in test [3], 30.3 µM; in test [4], 34.5 µM; in test [5] it was 30.7 µM; in test [6], 28.4 µM. Also, the TGI in test [7] is 23.6 µM; in [8], 31.7 µM; in test [9] it was 31.2 µM; in test [10], greater than 100 µM; in test [11] it was 28.9 µM; in test [12], 32.6 µM. Besides, the TGI in test [13] came to 31.4 µM; in test [14], 34.1 µM; in test [15], 31 µM; in test [16], 30.7 µM; in [17] it was 38.7 µM; in [18] it was 29.7 µM. The figures for the TGI in test [19] and in [20] were 30.6 µM and 36 µM, respectively.
In the case of `C[N+](C)(CCNc1ccc(NCC[N+](C)(C)Cc2ccc([N+](=O)[O-])cc2)c2c1C(=O)c1c(O)ccc(O)c1C2=O)Cc1ccc([N+](=O)[O-])cc1`, the TGI in test [1], in [2], in test [3], in [4], in test [5] and in [6] was greater than 50 µM in each case. Further, the TGI in test [7] was greater than 50 µM; in test [8] it was greater than 50 µM; in test [9], greater than 50 µM; in test [10] it was greater than 5 µM; in test [11], greater than 50 µM; in test [12] it was greater than 50 µM. The TGI in test [13], in test [14], in test [15], in test [16], in test [17] and in [18] was greater than 50 µM throughout. In addition, the TGI was 14.5 µM in [19] and greater than 50 µM in test [20].
